Data taken from patent publication US11124541B2, “Chimeric melanocortin ligands and methods of use thereof” (REGENTS OF THE UNIVERSITY OF MINNESOTA, priority 2016, dated 2021).
Entries after “also recorded” stand apart in the source; their conditions may differ. Non-standard residues stand in square brackets, D forms with d. Residues, ends and D or L forms follow the SMILES beside them. Dap = NC[C@H](N)C(=O)O

Experiments:
mMC1R = mMC1R (Mus musculus, UniProt Q01727); experiment: cAMP AlphaScreen agonist assay, HEK293 cells stably expressing mouse MC1R; settings: for EC50: read-out: mMC1R EC50, agonist, cAMP; for agonist activity/efficacy at mMC1R (in words): concentrations up to 100 μM
Chain of mMC1R (Q01727 whole entry): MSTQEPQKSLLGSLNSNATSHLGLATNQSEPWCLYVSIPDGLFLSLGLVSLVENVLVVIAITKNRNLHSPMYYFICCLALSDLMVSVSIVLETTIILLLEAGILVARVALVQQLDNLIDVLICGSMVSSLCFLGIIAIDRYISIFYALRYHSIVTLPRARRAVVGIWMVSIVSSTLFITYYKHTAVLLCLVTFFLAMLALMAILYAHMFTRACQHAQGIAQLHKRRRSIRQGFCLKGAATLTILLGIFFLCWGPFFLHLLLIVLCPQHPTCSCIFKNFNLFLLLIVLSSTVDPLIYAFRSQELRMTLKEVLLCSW

mMC5R = mMC5R (Mus musculus, UniProt P41149); experiment: cAMP AlphaScreen agonist assay, HEK293 cells stably expressing mouse MC5R; settings: for EC50: read-out: mMC5R EC50, agonist, cAMP
Chain of mMC5R (P41149 whole entry): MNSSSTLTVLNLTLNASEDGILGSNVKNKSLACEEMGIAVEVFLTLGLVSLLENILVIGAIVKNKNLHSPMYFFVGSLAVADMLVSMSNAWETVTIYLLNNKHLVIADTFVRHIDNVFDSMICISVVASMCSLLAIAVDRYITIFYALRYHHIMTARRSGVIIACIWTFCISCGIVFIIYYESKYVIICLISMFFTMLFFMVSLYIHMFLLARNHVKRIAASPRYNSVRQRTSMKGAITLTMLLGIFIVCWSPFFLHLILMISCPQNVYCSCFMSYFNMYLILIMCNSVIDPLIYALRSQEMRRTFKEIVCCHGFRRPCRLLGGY

mMC4R = mMC4R (Mus musculus, UniProt P56450); experiment: cAMP AlphaScreen agonist assay, HEK293 cells stably expressing mouse MC4R; settings: for agonist activity/efficacy at mMC4R (in words): concentrations up to 100 μM; for mMC4R percent maximal stimulatory response at 100 μM: no EC50 determinable, relative to NDP-MSH; for EC50: read-out: mMC4R EC50, agonist, cAMP; for selectivity for the mMC4R over the mMC3R: agonist potency
Chain of mMC4R (P56450 whole entry): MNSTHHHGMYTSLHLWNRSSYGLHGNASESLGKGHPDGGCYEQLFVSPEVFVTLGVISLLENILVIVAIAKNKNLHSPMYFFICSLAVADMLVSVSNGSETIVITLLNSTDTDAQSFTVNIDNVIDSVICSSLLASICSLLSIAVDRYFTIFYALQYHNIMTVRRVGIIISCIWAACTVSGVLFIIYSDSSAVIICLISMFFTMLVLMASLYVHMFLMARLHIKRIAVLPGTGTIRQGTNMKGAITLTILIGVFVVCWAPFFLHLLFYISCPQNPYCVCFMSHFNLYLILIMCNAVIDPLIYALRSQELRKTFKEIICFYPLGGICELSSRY

mMC3R = mMC3R (Mus musculus, UniProt P33033); experiment: cAMP AlphaScreen agonist assay, HEK293 cells stably expressing mouse MC3R; settings: for mMC3R percent maximal stimulatory response at 100 μM: no EC50 determinable, relative to NDP-MSH; for agonist activity/efficacy at mMC3R (in words): concentrations up to 100 μM; for EC50: read-out: mMC3R EC50, agonist, cAMP
Chain of mMC3R (P33033 whole entry): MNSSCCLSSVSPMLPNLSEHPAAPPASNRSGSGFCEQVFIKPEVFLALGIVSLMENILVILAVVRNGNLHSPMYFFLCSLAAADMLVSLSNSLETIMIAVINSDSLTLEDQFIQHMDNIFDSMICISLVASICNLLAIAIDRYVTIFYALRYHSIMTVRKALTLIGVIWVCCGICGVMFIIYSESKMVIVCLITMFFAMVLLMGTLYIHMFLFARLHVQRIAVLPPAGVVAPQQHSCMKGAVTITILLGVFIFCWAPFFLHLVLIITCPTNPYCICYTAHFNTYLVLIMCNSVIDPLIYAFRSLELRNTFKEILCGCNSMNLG

| SMILES | EC50 (mMC1R) [nM] | agonist activity/efficacy at mMC4R (in words) (mMC4R) | agonist activity/efficacy at mMC3R (in words) (mMC3R) | EC50 (mMC5R) [nM] | decreased agonist potency at mMC1R relative to MDE5-149-2c (mMC1R) [fold] | EC50 (mMC4R) [nM] | EC50 (mMC3R) [nM] | further results |
| --- | --- | --- | --- | --- | --- | --- | --- | --- |
| N=C(N)NCCC[C@@H]1NC(=O)[C@@H](Cc2ccccc2)NC(=O)[C@@H]2CCCN2C(=O)[C@H]2CCCN2C(=O)[C@H](Cc2c[nH]c3ccccc23)NC1=O [MDE5-147-1c, c[Pro-DPhe-Arg-Trp-DPro]] (cyclo(P[dF]RW[dP])) | 1800 | stimulated a fraction of the maximal NDP-MSH response | – | – | – | – | – | mMC5R percent maximal stimulatory response at 100 μM (mMC5R; 100 μM, no EC50 determinable, relative to NDP-MSH): 75% @ |
| N=C(N)NCCC[C@@H]1NC(=O)[C@@H](Cc2ccccc2)NC(=O)[C@H](Cc2c[nH]cn2)NC(=O)[C@@H]2CCCN2C(=O)[C@H]2CCCN2C(=O)[C@H](Cc2c[nH]c3ccccc23)NC1=O [MDE5-147-2c, c[Pro-His-DPhe-Arg-Trp-DPro]] (cyclo(PH[dF]RW[dP])) | 900 ± 200 | stimulated a fraction of the maximal NDP-MSH response | partially stimulated | 6000 | – | – | – | mMC3R percent maximal stimulatory response at 100 μM (mMC3R): 60% @; mMC3R percent maximal stimulatory response at 100 μM (mMC3R; listed as MDES-147-2c): 60%; mMC4R percent maximal stimulatory response at 100 μM (mMC4R): 65% @; mMC4R percent maximal stimulatory response at 100 μM (mMC4R; listed as MDES-147-2c): 65% |
| C[C@@H]1NC(=O)[C@H](CC(N)=O)NC(=O)[C@H](Cc2c[nH]c3ccccc23)NC(=O)[C@H](CCCNC(=N)N)NC(=O)[C@@H](Cc2ccccc2)NC(=O)[C@@H]2CCCN2C(=O)[C@H]2CCCN2C(=O)[C@H](Cc2ccccc2)NC1=O [MDE5-149-1c, c[Pro-DPhe-Arg-Trp-Asn-Ala-Phe-DPro]] (cyclo(P[dF]RWNAF[dP])) | 400 ± 200 | – | partially stimulated | 40 ± 10 | 1140 | 130 ± 70 | – | decreased agonist potency at mMC5R relative to MDE5-149-2c (mMC5R): 90 fold; decreased agonist potency at mMC4R relative to MDE5-149-2c (mMC4R): 90 fold |
| C[C@@H]1NC(=O)[C@H](CC(N)=O)NC(=O)[C@H](Cc2c[nH]c3ccccc23)NC(=O)[C@H](CCCNC(=N)N)NC(=O)[C@@H](Cc2ccccc2)NC(=O)[C@H](Cc2cnc[nH]2)NC(=O)[C@@H]2CCCN2C(=O)[C@H]2CCCN2C(=O)[C@H](Cc2ccccc2)NC1=O [MDE5-149-2c, c[Pro-His-DPhe-Arg-Trp-Asn-Ala-Phe-DPro]] (cyclo(H[dF]RWNAF[dP]P)) | 0.35 | – | – | 0.45 | – | 1.4 | 32 | selectivity for the mMC4R over the mMC3R (mMC4R): 23 fold |
| C[C@@H]1NC(=O)[C@H](CN)NC(=O)[C@H](Cc2c[nH]c3ccccc23)NC(=O)[C@H](CCCNC(=N)N)NC(=O)[C@@H](Cc2ccccc2)NC(=O)[C@@H]2CCCN2C(=O)[C@H]2CCCN2C(=O)[C@H](Cc2ccccc2)NC1=O [MDE5-151-1c, c[Pro-DPhe-Arg-Trp-Dap-Ala-Phe-DPro]] (cyclo(P[dF]RW[Dap]AF[dP])) | 190 | full agonist | partial agonist | 46 ± 6 | – | 100 | 3000 | agonist activity/efficacy at mMC1R (in words) (mMC1R): partial agonist |
| C[C@@H]1NC(=O)[C@H](CN)NC(=O)[C@H](Cc2c[nH]c3ccccc23)NC(=O)[C@H](CCCNC(=N)N)NC(=O)[C@@H](Cc2ccccc2)NC(=O)[C@H](Cc2c[nH]cn2)NC(=O)[C@@H]2CCCN2C(=O)[C@H]2CCCN2C(=O)[C@H](Cc2ccccc2)NC1=O [MDE5-151-2c, c[Pro-His-DPhe-Arg-Trp-Dap-Ala-Phe-DPro]] (cyclo(PH[dF]RW[Dap]AF[dP])) | 24 | partial agonist | full agonist | 18 ± 2 | 70 | 23 | 260 | agonist activity/efficacy at mMC1R (in words) (mMC1R): full agonist |
| C[C@@H]1NC(=O)[C@H](CC(N)=O)NC(=O)[C@H](Cc2c[nH]c3ccccc23)NC(=O)[C@H](CCCNC(=N)N)NC(=O)[C@@H](Cc2ccccc2)NC(=O)[C@@H]2CCCN2C(=O)[C@H]2CCCN2C1=O [MDE6-3-1c, c[Pro-DPhe-Arg-Trp-Asn-Ala-DPro]] (cyclo(P[dF]RWNA[dP])) | – | – | partially stimulated | – | – | – | – | mMC3R percent maximal stimulatory response at 100 μM (mMC3R): 55% @; selectivity for the mMC4R over the mMC3R (mMC4R): > 100 fold |
| C[C@@H]1NC(=O)[C@H](CC(N)=O)NC(=O)[C@H](Cc2c[nH]c3ccccc23)NC(=O)[C@H](CCCNC(=N)N)NC(=O)[C@@H](Cc2ccccc2)NC(=O)[C@H](Cc2c[nH]cn2)NC(=O)[C@@H]2CCCN2C(=O)[C@H]2CCCN2C1=O [MDE6-3-2c, c[Pro-His-DPhe-Arg-Trp-Asn-Ala-DPro]] (cyclo(PH[dF]RWNA[dP])) | – | – | – | – | 34 | – | 300 | decreased agonist potency at mMC3R relative to MDE5-149-2c (mMC3R; relative to MDE5-149-2c): 9 fold; decreased agonist potency at mMC5R relative to MDE5-149-2c (mMC5R): 5 fold; decreased agonist potency at mMC4R relative to MDE5-149-2c (mMC4R): 21 fold |
| C[C@@H]1NC(=O)[C@H](CN)NC(=O)[C@H](Cc2c[nH]c3ccccc23)NC(=O)[C@H](CCCNC(=N)N)NC(=O)[C@@H](Cc2ccccc2)NC(=O)[C@@H]2CCCN2C(=O)[C@H]2CCCN2C1=O [MDE6-5-1c, c[Pro-DPhe-Arg-Trp-Dap-Ala-DPro]] (cyclo(P[dF]RW[Dap]A[dP])) | 600 | – | partially stimulated | 48 | – | 150 ± 10 | – | agonist activity/efficacy at mMC1R (in words) (mMC1R): full agonist |
| N=C(N)NCCC[C@@H]1NC(=O)[C@@H](Cc2ccccc2)NC(=O)[C@@H]2CCCN2C(=O)[C@H]2CCCN2C(=O)[C@H](CC(N)=O)NC(=O)[C@H](Cc2c[nH]c3ccccc23)NC1=O [MDE6-10-1c, c[Pro-DPhe-Arg-Trp-Asn-DPro]] (cyclo(P[dF]RWN[dP])) | 40 | – | no agonist activity; also recorded: did not possess agonist activity | – | – | 1100 | – | selectivity for the mMC1R over the mMC3R (mMC1R; agonist potency): > 2500 fold; selectivity for the mMC1R over the mMC5R (mMC1R; agonist potency): > 1000 fold; increased agonist potency at mMC1R over MDE5-149-1c (mMC1R; increase over MDE5-149-1c): 10 fold; agonist activity/efficacy at mMC5R (in words) (mMC5R; concentrations up to 100 μM): partially stimulated; decreased potency at mMC4R relative to MDE5-149-1c (mMC4R; decrease relative to MDE5-149-1c): 8 fold |
| N=C(N)NCCC[C@@H]1NC(=O)[C@@H](Cc2ccccc2)NC(=O)[C@H](Cc2c[nH]cn2)NC(=O)[C@@H]2CCCN2C(=O)[C@H]2CCCN2C(=O)[C@H](CC(N)=O)NC(=O)[C@H](Cc2c[nH]c3ccccc23)NC1=O [MDE6-10-2c, c[Pro-His-DPhe-Arg-Trp-Asn-DPro]] (cyclo(PH[dF]RWN[dP])) | – | – | – | – | 143 | – | 510 | decreased agonist potency at mMC5R relative to MDE5-149-2c (mMC5R): 37 fold; decreased agonist potency at mMC4R relative to MDE5-149-2c (mMC4R): 121 fold |
